Data reported in patent publication US20110229878A1, “HUMAN CONSENSUS SODIUM-IODIDE SYMPORTER REPRESSOR (NIS-REPRESSOR) BINDING SITE” (priority 2010, published 2011).

Assays:
NIS transcription = conditions: Venkataraman et al. 1999; cited from earlier work
chromatin compaction = conditions: previous genomic DNase I digestion studies (Li et al. 2007); cited from earlier work
NIS-repressor = assay: EMSA pattern using KAK1 nuclear extract after epigenetic agents; assay type: binding, human
Procedure: EMSA: EMSA is carried out as follows: 3 μL nuclear extract, 1 μL end-labeled probe, 1 μL Poly(dI-dC)-Poly(dI-dC) (0.01 U/μL in 100 mM KCl, 20 mM HEPES, pH 8.0), 1 μL Salmon sperm DNA (500 ng/μL in nuclease-free water), 5 μL 4×EMSA buffer (400 mM KCl, 80 mM HEPES, 0.8 mM EDTA, 80% glycerol, 0.5 mM DTT) are mixed and distilled nuclease-free water is added to bring the reaction mix to 18 μL. The mixture is incubated on ice for 30 minutes, followed by addition of 2 μL of loading buffer (1×EMSA buffer, 0.25% Bromophenol Blue). A 7% non-denaturing PAGE gel is pre-run in 0.5×TBE (5.4 g/L Tris base, 2.75 g/L boric acid, 1 mM EDTA, pH 8.) for 30 minutes at 100V. The entire 20 μL EMSA reaction is loaded into one well of the polyacrylamide gel and run at 100V until the Bromophenol Blue dye has migrated to the end of the gel. The gel is dried on DEAE paper using a standard gel dryer and the dried gel is exposed to X-ray film. A retarded signal relative to free end-labeled probe indicates athe presence of a positive protein-probe interaction complex. When un-labeled DNA probe is added in the EMSA reaction mixture, loss of EMSA signal indicates the signal is probe-specific.

[1] = system: hNIS transcription in Cal-62 cells; assay: Endogenous hNIS transcription in Cal-62 cells; assay type: cell-based, human
From the text: (§1) Furthermore. […] PJ34 inhibition of PARP1 enzymatic activity may compromise the assembly, stability, or activity of the NIS-repressor protein complex.

[2] = system: hNIS transcription in KAK1 cells; assay: Endogenous hNIS transcription in KAK1 cells; assay type: cell-based, human
From the text: as §1

hNIS = assay: Endogenous hNIS mRNA / transcription in thyroid cancer cells (cell line not given); assay type: cell-based, human
From the text: Multiple cellular and nuclear factors are reported to be important for hNIS transcription, including: TSH (thyrotropin)/receptor (TSHr) (Riedel, et al. 2001), TTF-1 (Schmitt, et al. 2001), and Pax-8 (Pasca di Magliano, et al. 2000), but there are no clear examples of repressing transcription factors in thyroid cells or thyroid carcinomas. […] We also characterized NIS-repressor and investigated the identities of its components and mechanisms of its activity. This involved defining NRBS-P to a narrower region of hNIS promoter and utilizing it to probe nuclear extract, analyzing the probe-bound proteins with liquid chromatography coupled with tandem mass spectrometry (LC/MS/MS), to characterize NIS-repressor components. […] Pharmacological inhibition of PARP-1 activity with PJ34, a PARP-1 inhibitor, stimulated endogenous hNIS mRNA levels, providing evidence that PARP-1 acts as a negative regulatory factor for hNIS transcription and is a likely component of the NIS-repressor complex.
In summary, a second core sequence in the human sodium-iodine symporter (hNIS) promoter, NRBS-D, which is a binding site for a trans-active transcriptional repressor, NIS-repressor has been defined. […] A known inhibitor of PARP-1 enzymatic activity, PJ34, causes increased endogenous transcription of hNIS in genotypically verified thyroid cancer cells.

NIS promoter constructs = assay: Luciferase activity from NIS promoter constructs; assay type: cell-based, human
From the text: as §1

[3] = system: NIS-repressor (KAK1 nuclear extract); assay: EMSA competition against radiolabeled Probe-A (NRBS-P), KAK1 nuclear extract; assay type: binding, human; conditions: 60× unlabeled annealed double-stranded oligonucleotide
From the text: FIGS. 2A and 2B show the results of EMSA analysis followed by […] to define the core sequence for NRBS-D and cross competition of NRBS-D with NRBS-P. FIG. 2A depicts EMSA using KAK1 nuclear extract probed with radiolabeled SHIFT-4 containing NRBS-D in lanes 2 to 15. Unlabeled (30×) SHIFT-4, 4.1, 4.4, 4.2, 4.3, 4.5, 4.6, 4.7, and Probe-A were included in EMSA reactions in lanes 3, 4, 5, 6, 7, 11, 12, 13, and 15, respectively. The unlabeled (60×) annealed double-stranded oligonucleotides ds-411, ds-412, ds-413, and Comp-1 were added to the EMSA reactions in lanes 8, 9, 10, and 14, respectively. Lane 2 had no additional unlabeled competitor, and lane 1 contained radiolabeled SHIFT-4 probe only. In FIG. 2B, KAK1 nuclear extract was probed with radiolabeled Probe-A. The unlabeled 30× Probe-A, 60× annealed double-stranded Comp-1, and 60× annealed double-stranded ds-414 were added in EMSA reactions in lane 3, 4, and 5, respectively. The arrows point to the probe-specific bands.
EMSA: EMSA is carried out as follows: 3 μL nuclear extract, 1 μL end-labeled probe, 1 μL Poly(dI-dC)-Poly(dI-dC) (0.01 U/μL in 100 mM KCl, 20 mM HEPES, pH 8.0), 1 μL Salmon sperm DNA (500 ng/μL in nuclease-free water), 5 μL 4×EMSA buffer (400 mM KCl, 80 mM HEPES, 0.8 mM EDTA, 80% glycerol, 0.5 mM DTT) are mixed and distilled nuclease-free water is added to bring the reaction mix to 18 μL. […]

| Molecule | NIS transcription (NIS transcription) | effect on chromatin compaction (chromatin compaction) | effect on EMSA pattern (NIS-repressor) | also measured |
| --- | --- | --- | --- | --- |
| Nc1ncn([C@@H]2O[C@H](CO)[C@@H](O)[C@H]2O)c(=O)n1 [5-azacytidine] | restore | failed to demonstrate any effect | did not alter |  |
| CN(C)CC(=O)Nc1ccc2[nH]c(=O)c3ccccc3c2c1 [PJ34] |  |  |  | endogenous hNIS transcription [1]: stimulated; endogenous hNIS transcription [2]: stimulated; endogenous transcription of hNIS (hNIS; genotypically verified thyroid cancer cells): increased; endogenous hNIS mRNA levels (hNIS; pharmacological inhibition of PARP-1 activity): stimulated; luciferase activity from NIS promoter constructs (NIS promoter constructs): effectively stimulated |
| CCCC(=O)[O-].[Na+] [sodium butyrate] | restore | failed to demonstrate any effect | did not alter |  |
| ds-414: annealed double-stranded oligonucleotide 5′-ccttgttacagatggggaaactaaggccca-3′, −987 to −958 (SEQ ID NO.: 6) (sense CCTTGTTACAGATGGGGAAACTAAGGCCCA; annealed double-stranded unlabeled competitor, further chemistry not given here) |  |  |  | competition against radiolabeled Probe-A in EMSA [3]: strong competition |
